From paper PMC3454513 (Nature structural & molecular biology, 2012)

Key:
p53 = experiment: Immunoblot of p53 phosphorylated at Ser15, HCT 116 cells; format: cell-based, human; conditions: 10 μM doxorubicin or 100 μM etoposide for 4 h
[1] = system: PHF20 Tudor2 and Tudor1-2; format: binding, human; conditions: peptide array (Supplementary Fig. 1)
mass spectrometry = molecular target: the molecule itself; experiment: mass spectrometry

Row | Molecule | interaction with PHF20 among the four known methylated forms of p53 [1] | further results
1 | COc1cccc2c1C(=O)c1c(O)c3c(c(O)c1C2=O)C[C@@](O)(C(=O)CO)C[C@@H]3O[C@H]1C[C@H](N)[C@H](O)[C@H](C)O1 [doxorubicin] |  | phosphorylation of p53 at Ser15 (p53): induced phosphorylation of p53 at Ser15
2 | p53K370me2: Cy3-labeled 18-amino acid p53 peptide dimethylated at Lys370 | strongest interaction | 
3 | p53K382me2: Cy3-labeled 18-amino acid p53 peptide dimethylated at Lys382 | strongest interaction | 
4 | PHF20 Tudor2 (amino acids 84–147), disulfide cross-linked homodimer (domain or fragment, human, UniProt Q9BVI0 84-147, looked up, disulfide bonds between Cys96 and Cys100 of subunit A and Cys100 and Cys96 of subunit B) SSEFQINEQVLACWSDCRFYPAKVTAVNKDGTYTVKFYDGVVQTVKHIHVKAFSKDQNIVGNAR |  | stoichiometry N (mass spectrometry): 2
